Measured values reported in patent US20110044936A1, “Composition for Attracting Bed Bugs” (priority 2009, published 2011).

Legend:
Format in all cases: in vivo
[1] = tested on: bed bugs (Cimex lectularius); experiment: Bed bug aggregation assay, mixtures of Hexenal, Octenal and butyric acid (Example 3); details: for Number of bed bugs under experimental (Exp) disk: H/O 75/25 120 ppm in silicone oil, BA about 100 ppm in deionized water, 5 microliters each, ten bed bugs, average of two tests
Experimental: Attraction Assays: […] For this test, a mixture of Hexenal and Octenal (75:25 ratio) was diluted in silicone oil to provide about a 120 ppm solution. […] Readings were taken hourly for four hours from the release of bed bugs in the assay arena. The number of bed bugs under the control disk and the number of bed bugs under the experimental disk were recorded. The test chemical was considered to be an attractant if the number of bed bugs under the experimental filter disk was greater than the number under the control disk. Table 3 below summarizes the experimental data, the experimental test treatment considered as attractants are in bold.

[2] = tested on: bed bugs (Cimex lectularius); experiment: Bed bug aggregation (attraction) assay, Petri dish arena with treated and control filter paper tents (Example 1); details: 5 microliters, one hour, five bed bugs, average of two tests
Experimental: Attraction Assays: Assay arenas were made from 150×15 mm plastic Petri dishes (VWR#25384-326) containing a 125 mm piece off qualitative filter paper (VWR#28320-100) glued to the bottom using 3M Super 77® multipurpose spray adhesive. A 80 mm hole was cut into the lid and a 500 um mesh Nytex® screen (Bioquip, #7293B) was glued to cover the opening using quick epoxy. Fresh bottom dishes were used in each assay. For these experiments 2.4 cm filter paper folded to create a tent were treated with either a control treatment (10 microliters of silicone oil for aldehyde controls and 5 microliters of deionized water for acid controls) or 10 microliters of the experimental test treatment diluted in silicone oil (aldehydes) or 5 microliters of the experimental chemical diluted in deionized water (acids). Ten bed bugs per test were released into the assay arena for the aldehyde test treatments and controls, five bed bugs per test were released into the assay arena for the acid test treatments. Day cycling bed bugs (Cimex lectularius), 12 hour light: 12 hour dark (7 AM On: 7 PM Off) light cycle, were incubated and evaluated under normal room lighting conditions at room temperature. Readings were taken at 1 hour intervals from the release of bed bugs for 4 hours for aldehydes and one hour for acids, due to the quick volatility of the acids. The number of bed bugs under the control filter paper disk and the number of bed bugs under the test treatment filter paper disk were recorded. The test treatment was considered to be an attractant if the number of bed bugs under the experimental filter disk was greater than the number under the control filter disk. Table 1 below summarizes the experimental data, the experimental test treatments considered as attractants are in bold.

[3] = tested on: bed bugs (Cimex lectularius); experiment: Test arena gas assay, compounds dissolved in nonane (Example 5)
From the text: A test arena was constructed from a 60×40×22 cm (L:W:H) polystyrene container. A 60×40 cm piece of filter paper was glued on the bottom to provide a walking surface for the bed bugs. At one end of the test arena, a triangular piece of plastic (16 cm high×25 cm long) was glued to the middle of the side and bottom of the container to create test zones of equal area on either side of the partition. On each side of this partition a piece of Tygon® tubing was inserted through a hole 7 cm above the bottom of each test zone to deliver a control gas to one side of the partition (control zone) and the experimental gas to the other side of the partition (experimental zone). The tubing was positioned to deliver the gases downward into the test zones with each outlet 6 cm above the filter paper glued to the bottom of the container. At the other end of the test arena, a 4 W night light was placed 35 cm above the bottom of the arena and regulated to a 12 hour light:12 hour dark (7 AM On: 7 PM Off) light cycle. Also placed adjacent to the night light was a small fan (Boston, cat#EHSDF) to create a gentle removal of gases from the distal part of the arena. Air released by the experimental and control gases was contained within their partitions and were gently drawn away from the respective air inputs, mixed within the arena and removed by the fan. This created a laminar flow where the bed bugs had opportunity to select either the experimental or control gas. Fifty bed bugs (Cimex lectularius) were entrapped within an inverted 90 mm Petri dish at a position furthest from the control and experimental zones until bed bugs were quiescent. Removal of the Petri dish started the experiment and readings were taken every hour for two hours. Data collected were number of bed bugs in the experimental, control and free arena zones. In addition, gas temperature, relative humidity, air flow rate, and percent CO2 data were collected. The experimental gas was considered to be an attractant if more bed bugs were in the experimental zone than in the control zone.
Determination of Bed Bug Aggregation Effect Using Hexenal, Butyric Acid, trans-2-Hexen-1-al Diethylacetal, Trimethylsilyl Butyrate or Methyl Butyrate Dissolved in an Alkane Solvent Using the test arena and methods described in Example 4, test treatments containing about 300 ppm of a pro-aldehyde compound, trans-2-hexen-1-al diethylacetal, dissolved in nonane, about 300 ppm of Hexenal dissolved in nonane, about 200 ppm of butyric acid dissolved in nonane and about 200 ppm of a pro-organic acid compound, trimethylsilyl butyrate or methyl butyrate, dissolved in nonane were prepared. Separate 100 micro liter pipettes (Drummond Wiretrol 100 μL) were filled with the test solutions. One end of each micro liter pipette was sealed with parafilm leaving one end of each open. […] An air tight lid was placed onto the plastic container and the container was installed in-line after humidity and temperature conditioning of the gas and before the gas entered the arena. The micro liter pipettes were weighed before and after use to determine the amount of the test compounds released. The control gas used for these experiments consisted of house compressed air.

[4] = tested on: bed bugs (Cimex lectularius); experiment: Test arena assay with experimental gas and control gas zones (Example 4); details: after two hour exposure; fifty bed bugs; Hexenal/Octenal 75/25 at 73 nanograms/hour, butyric acid 3.097 micrograms/hour @ 100 mL/min air flow; CO2 50%; test gas 23-26 °C; control gas compressed air
From the text: A test arena was constructed from a 60×40×22 cm (L:W:H) polystyrene container. […] At one end of the test arena, a triangular piece of plastic (16 cm high×25 cm long) was glued to the middle of the side and bottom of the container to create test zones of equal area on either side of the partition. On each side of this partition a piece of Tygon® tubing was inserted through a hole 7 cm above the bottom of each test zone to deliver a control gas to one side of the partition (control zone) and the experimental gas to the other side of the partition (experimental zone). The tubing was positioned to deliver the gases downward into the test zones with each outlet 6 cm above the filter paper glued to the bottom of the container. […] Removal of the Petri dish started the experiment and readings were taken every hour for two hours. […] Air temperature was monitored with a high/low thermometer. […] Relative humidity was monitored using a high/low hygrometer placed in-line immediately before the gas entered the arena. […] The relationship between valve settings and air flow was determined and using this information, valve settings were determined that could deliver blended gases (air and CO2) at a flow rate of about 100 or about 200 ml/min. […]

Row | SMILES | Number of bed bugs under experimental (Exp) disk ([1]; 1 Hour) | Number of bed bugs under experimental (Exp) disk ([1]; 2 Hour) | Number of bed bugs under experimental (Exp) disk ([1]; 3 Hour) | Number of bed bugs under experimental (Exp) disk ([1]; 4 Hours) | Attraction of bed bugs to experimental filter disks ([1]; H/O 75:25 120 ppm, butyric acid 100 ppm) | Number of bed bugs under experimental (Exp) filter paper disk ([2]; organic acid 10 ppm in deionized water) | Number of bed bugs under experimental (Exp) filter paper disk ([2]; organic acid 50 ppm in deionized water) | Number of bed bugs under experimental (Exp) filter paper disk ([2]; organic acid 100 ppm in deionized water) | Number of bed bugs under experimental (Exp) filter paper disk ([2]; organic acid 1000 ppm in deionized water) | Number of bed bugs under experimental (Exp) filter paper disk ([2]; organic acid 10000 ppm in deionized water) | % Bed bugs in Experimental Zone ([3]; after two hour exposure, released from nonane solution at 150.0-184.8 nanograms/hour @ 100 mL/min air flow, test gas 21-22 °C, control gas compressed air) [%] | Attraction of bed bugs to gaseous mixture ([3]; test arena, two hour exposure, versus control gas) | % Bed bugs in Experimental Zone [4] [%]
1 | CCCC(=O)O [Butyric acid, butyric acid] | 4.5 | 5.5 | 4.5 | 5 | attracted | 4 | 2 | 4 | 4 | 4 | 34.0 | attracted | 
2 | O=C=O [CO2, carbon dioxide] |  |  |  |  |  |  |  |  |  |  |  |  | 76.0
